# Measured values reported in ChEMBL document CHEMBL5518238, “Structure-Activity Relationship (SAR) Studies of Novel Monovalent AR/AR-V7 Dual Degraders with Potent Efficacy against Advanced Prostate Cancer” (J Med Chem, 2024).
# Active and inactive are the calls of the source. No cut-off for these calls is given here.
# Legend:
# [1] = target: T1, Androgen receptor (Homo sapiens) (UniProt P10275); experiment: Induction of AR degradation in human LNCaP cells at 5 uM by Western blot analysis; format: cell-based; settings: time <= 24.0 hrs, TDE = time-dependent effect
# T1 sequence (whole entry): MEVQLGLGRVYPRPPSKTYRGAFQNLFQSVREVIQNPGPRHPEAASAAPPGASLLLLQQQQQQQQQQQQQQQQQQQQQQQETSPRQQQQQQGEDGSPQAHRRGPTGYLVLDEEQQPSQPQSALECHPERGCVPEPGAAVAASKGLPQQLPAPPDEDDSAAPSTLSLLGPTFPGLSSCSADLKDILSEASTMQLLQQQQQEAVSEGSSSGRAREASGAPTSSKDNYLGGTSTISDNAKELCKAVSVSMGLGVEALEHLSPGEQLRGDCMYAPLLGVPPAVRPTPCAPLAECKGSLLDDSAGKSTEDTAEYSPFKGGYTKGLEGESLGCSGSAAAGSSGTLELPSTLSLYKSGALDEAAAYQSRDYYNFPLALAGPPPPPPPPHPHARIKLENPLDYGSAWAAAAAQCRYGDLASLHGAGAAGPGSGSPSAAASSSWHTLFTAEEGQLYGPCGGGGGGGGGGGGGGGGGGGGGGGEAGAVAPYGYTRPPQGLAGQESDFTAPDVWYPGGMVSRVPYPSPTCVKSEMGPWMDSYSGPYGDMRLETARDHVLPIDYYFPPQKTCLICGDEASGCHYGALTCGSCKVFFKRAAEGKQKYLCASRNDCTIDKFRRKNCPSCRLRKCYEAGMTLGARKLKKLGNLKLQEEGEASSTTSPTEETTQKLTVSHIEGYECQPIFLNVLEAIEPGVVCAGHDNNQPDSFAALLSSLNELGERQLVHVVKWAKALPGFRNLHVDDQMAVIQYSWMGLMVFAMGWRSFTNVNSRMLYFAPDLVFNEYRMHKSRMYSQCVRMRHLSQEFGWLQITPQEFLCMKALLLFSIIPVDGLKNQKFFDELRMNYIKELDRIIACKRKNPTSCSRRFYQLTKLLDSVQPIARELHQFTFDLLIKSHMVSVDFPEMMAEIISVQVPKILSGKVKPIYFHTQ
# [2] = system: Androgen receptor (Homo sapiens), P10275 [UNDEFINED MUTATION]; experiment: Induction of AR-V7 degradation in human 22Rv1 cells at 10 uM incubated for 24 hrs in presence of CHX by Western blot analysis; format: cell-based
# [3] = system: Androgen receptor (Homo sapiens), P10275 [UNDEFINED MUTATION]; experiment: Binding affinity to AR-V7 (unknwon origin) assessed as thermal stabilization at 10 uM incubated for 2 hrs by CETSA analysis; format: cell-based; settings: 22Rv1
# [4] = target: T1, Androgen receptor (Homo sapiens); experiment: Binding affinity to AR-NTD in human 22Rv1 cels by SPR analysis
# [5] = target: T1, Androgen receptor (Homo sapiens); experiment: Induction of AR degradation in human 22Rv1 cells at 10 uM incubated for 24 hrs in presence of MDM2 by Western blot analysis; format: cell-based
# [6] = system: Androgen receptor (Homo sapiens), P10275 [UNDEFINED MUTATION]; experiment: Induction of AR-V7 degradation in human 22Rv1 cells at 10 uM incubated for 24 hrs in presence of […] by Western blot analysis; format: cell-based
# [7] = system: CWR22R; experiment: Downregulation of AR expression in human 22Rv1 cells at 5 uM incubated for 24 hrs by Western blot analysis; format: functional, cell-based
# [8] = system: CWR22R; experiment: Downregulation of BARD1 mRNA expression in human 22Rv1 cells at 10 uM incubated for 24 hrs by qRT-PCR analysis; format: functional, cell-based
# [9] = system: CWR22R; experiment: Downregulation of NKX3-1 mRNA expression in human 22Rv1 cells at 10 uM incubated for 24 hrs by qRT-PCR analysis; format: functional, cell-based
# [10] = system: CWR22R; experiment: Downregulation of KLK3 mRNA expression in human 22Rv1 cells at 10 uM incubated for 24 hrs by qRT-PCR analysis; format: functional, cell-based
# [11] = system: CWR22R; experiment: Downregulation of […] mRNA expression in human 22Rv1 cells incubated for 24 hrs by qRT-PCR analysis; format: functional, cell-based; settings: dose 5-10 µM
# [12] = system: CWR22R; experiment: Downregulation of AR-V7 mRNA expression in human 22Rv1 cells at 5 to 10 uM incubated for 12 hrs by qRT-PCR analysis; format: functional, cell-based; settings: dose 5-10 µM
# [13] = system: CWR22R; experiment: Induction of cell cycle arrest in human 22Rv1 cells assessed as accumulation of cells at G0/G1 phase at 5 uM incubated for 24 hrs by DAPI staining based flow cytometric analysis (reference value: 26.3 %); format: functional
# [14] = AUC (0 to t) in Sprague-Dawley rat at 50 mg/kg, po by LC-MS/MS analysis; format: ADME, organism-based; settings: in vivo
# [15] = AUC (0 to infinity) in Sprague-Dawley rat at 50 mg/kg, po by LC-MS/MS analysis; format: ADME, organism-based; settings: in vivo
# [16] = Toxicity in NSG mouse xenografted with human 22Rv1 cells assessed as heart damage t at 30 mg/kg, IG administered once daily for 21 days by H and E staining based analysis; format: organism-based, CWR22R; settings: in vivo, po, 504 h, time 21 day
smiles,measurement,setting,value
CC1(C)C(=O)N(c2ccc(C#N)c(C(F)(F)F)c2)C(=O)N1CCNc1ccc(F)c2ncccc12,Activity,[1],Tde
same,Activity,[2],Active
same,Activity,[3],inactive
same,Activity,[4],Active
same,Activity,[5],Active
same,Activity,[6],Active
same,Activity,[7],Active
same,Activity,[8],Active
same,Activity,[9],Active
same,Activity,[10],Active
same,Activity,[11],Dose-Dependent Effect
same,Activity,[12],Active
same,Activity,[13],50.6%
same,AUC(0-t),[14],3060 ng·h/mL
same,AUC(0-inf),[15],3470 ng·h/mL
same,Activity,[16],Non-Toxic
